Reference: US5525595A, “3- or 4-glycosyloxybenzopyran derivative and antiallergic agent containing the derivative as active ingredient” (priority 1993, dated 1996)

These compounds were tested on homologous passive cutaneous anaphylaxis (PCA) reaction (assay: Effect on homologous passive cutaneous anaphylaxis (PCA) reaction in rats). Settings: Rattus norvegicus, 0.5 h; 100 mg/kg oral, 1 hour before antigen, rats; Table 3.
Format: in vivo, rats (Male wistar rats)
Experimental: This experimental animal model is caused by immediate type allergic reaction, namely, antigen-antibody reaction. In the following, the method of this pharmacological test will be explained.
Method: Male wistar rats (9 weeks old) were intradermally administered 0.05 ml of anti-serum against trinitrophenylated ascaris (TNP-As) into two sites on the shaved dorsal skin. 48 hours later, 3-glycosyloxybenzopyran derivatives and 4-glycosyloxybenzopyran derivatives (test compounds) suspended in 0.5% sodium carboxymethylcellulose (CMCNa) were given orally at a dose of 100 mg/kg to the animals. 1 hour after administration of Test compounds, the animals were induced anaphylaxis by injection of saline (1 ml) dissolving 5 mg of Evans Blue and 1 mg of TNP-As into the tail vein of the animals. 30 minutes after induction of anaphylaxis, animals were anesthetized by ether and killed by bleeding, and were flayed dorsal skin. The leakage of dye was assessed by measuring the diameter (mean of shortest and longest diameter) of the blue spot on the inside surface of dorsal skin. As vehicle control group, only 0.5% CMCNa solution was administered orally, and as positive control group, Tranilast suspended in 0.5% CMCNa were administered orally at a dose of 100 mg/kg to the animals with the same method as the test compounds groups. Each experimental group consisted of 5 rats. [formula] In equation 1: A: leakage of dye in vehicle control group
B: leakage of dye in test compound group or in positive control group
The anti-allergic activity of the compounds of the present invention were compared with that of analogous compounds which were published in the Patent (EP-A-0598117) by PCA reaction. This pharmacological test was performed according to the method described in Test Example 1.

SMILES	inhibition in vivo at 100 mg/kg [%]
CCC=CCCOc1ccc2c(O)c(O[C@@H]3O[C@H](CO)[C@@H](O)[C@H](O)[C@H]3O)c(=O)oc2c1 [compound 19]	56.8
CC(C)=CCC/C(C)=C/COc1ccc2c(O)c(O[C@@H]3O[C@H](CO)[C@@H](O)[C@H](O)[C@H]3O)c(=O)oc2c1 [compound 20]	57.2
O=C(Oc1ccc2c(O)c(O[C@@H]3O[C@H](CO)[C@@H](O)[C@H](O)[C@H]3O)c(=O)oc2c1)c1ccccc1 [compound 21]	54.4
O=c1oc2cc(OCc3ccccc3)ccc2c(O)c1O[C@@H]1O[C@H](CO)[C@@H](O)[C@H](O)[C@H]1O [compound 22]	53.8
O=c1oc2cc(O)ccc2c(O)c1O[C@H]1O[C@H](CO)[C@@H](O)[C@H](O)[C@@H]1O [compound 23]	47.8
CCCCOc1ccc2c(O)c(O[C@H]3O[C@H](CO)[C@@H](O)[C@H](O)[C@@H]3O)c(=O)oc2c1 [compound 24]	54.3
CCCCCCCCOc1ccc2c(O)c(O[C@H]3O[C@H](CO)[C@@H](O)[C@H](O)[C@@H]3O)c(=O)oc2c1 [compound 25]	50.9
CCCCCCCCCCCCOc1ccc2c(O)c(O[C@H]3O[C@H](CO)[C@@H](O)[C@H](O)[C@@H]3O)c(=O)oc2c1 [compound 26]	53.3
CC(C)Oc1ccc2c(O)c(O[C@H]3O[C@H](CO)[C@@H](O)[C@H](O)[C@@H]3O)c(=O)oc2c1 [compound 27]	47.8
CCC=CCCOc1ccc2c(O)c(O[C@H]3O[C@H](CO)[C@@H](O)[C@H](O)[C@@H]3O)c(=O)oc2c1 [compound 28]	53.4
CC(C)=CCC/C(C)=C/COc1ccc2c(O)c(O[C@H]3O[C@H](CO)[C@@H](O)[C@H](O)[C@@H]3O)c(=O)oc2c1 [compound 29]	45.6
O=C(Oc1ccc2c(O)c(O[C@H]3O[C@H](CO)[C@@H](O)[C@H](O)[C@@H]3O)c(=O)oc2c1)c1ccccc1 [compound 30]	41.7
O=c1oc2cc(OCc3ccccc3)ccc2c(O)c1O[C@H]1O[C@H](CO)[C@@H](O)[C@H](O)[C@@H]1O [compound 31]	46.9
O=c1oc2cc(O)ccc2c(O)c1O[C@@H]1O[C@H](CO)[C@H](O)[C@H](O)[C@H]1O [compound 32]	43.2
CCCCOc1ccc2c(O)c(O[C@@H]3O[C@H](CO)[C@H](O)[C@H](O)[C@H]3O)c(=O)oc2c1 [compound 33]	57.2
CCCCCCCCOc1ccc2c(O)c(O[C@@H]3O[C@H](CO)[C@H](O)[C@H](O)[C@H]3O)c(=O)oc2c1 [compound 34]	64.3
CCCCCCCCCCCCOc1ccc2c(O)c(O[C@@H]3O[C@H](CO)[C@H](O)[C@H](O)[C@H]3O)c(=O)oc2c1 [compound 35]	60.1

What follows are compounds tested on contact dermatitis induced by picryl chloride (assay: Effect on contact dermatitis induced by picryl chloride in mice (delayed type hypersensitization)). Settings: Mus musculus; 100 mg/kg oral, ear thickness 24 hours after challenge; Table 6; read-out: Inhibition (%) against the increase of ear thickness.
Format: in vivo
Experimental: The delayed type hypersensitization is inhibited by steroid, but can not be effected by known anti-allergic agents. In the following, the method of the pharmacological test will be explained.
Method: Mice, shaved their abdominal skin on previous day, were immunized by applying 0.1 ml of acetone containing 7 mg of picryl chloride to the skin of the abdomen. 7 days after immunization, the thickness of the ear was measured with a dial thickness gauge, then mice were challenged by painting 5 μl of 1% picryl chloride olive oil solution to each side skin of left ear. 24 hours after challenge, the thickness of the left ear was measured again and the increase (%) of thickness was calculated according to equation 2. The compounds of the present invention (test compounds) suspended in 0.5% CMCNa were forcibly administered orally at a dose of 100 mg/kg at 1 hour before and 16 hours after challenge. As vehicle control group, only 0.5% CMCNa solution were administered orally, and as positive control group, Prednisolone, steroid hormone, and Tranilast were administered orally at the doses of 10 mg/kg and 100 mg/kg, respectively.
Increase (%)=(A-B)/B×100 (Equation 2)
A: thickness of the ear at 24 hours after challenge
B: thickness of the ear before challenge
Inhibition(%)=(C-D)/C×100 (equation 3)
C: The increase (%) in vehicle control group
D: The increase (%) in test compounds group or positive control group

SMILES	inhibition in vivo at 100 mg/kg [%]
CCC=CCCOc1ccc2c(O)c(O[C@@H]3O[C@H](CO)[C@@H](O)[C@H](O)[C@H]3O)c(=O)oc2c1 [compound 19]	57.4
CC(C)=CCC/C(C)=C/COc1ccc2c(O)c(O[C@@H]3O[C@H](CO)[C@@H](O)[C@H](O)[C@H]3O)c(=O)oc2c1 [compound 20]	56.2
O=C(Oc1ccc2c(O)c(O[C@@H]3O[C@H](CO)[C@@H](O)[C@H](O)[C@H]3O)c(=O)oc2c1)c1ccccc1 [compound 21]	53.6
O=c1oc2cc(OCc3ccccc3)ccc2c(O)c1O[C@@H]1O[C@H](CO)[C@@H](O)[C@H](O)[C@H]1O [compound 22]	53.4
O=c1oc2cc(O)ccc2c(O)c1O[C@H]1O[C@H](CO)[C@@H](O)[C@H](O)[C@@H]1O [compound 23]	45
CCCCOc1ccc2c(O)c(O[C@H]3O[C@H](CO)[C@@H](O)[C@H](O)[C@@H]3O)c(=O)oc2c1 [compound 24]	52.6
CCCCCCCCOc1ccc2c(O)c(O[C@H]3O[C@H](CO)[C@@H](O)[C@H](O)[C@@H]3O)c(=O)oc2c1 [compound 25]	57.3
CCCCCCCCCCCCOc1ccc2c(O)c(O[C@H]3O[C@H](CO)[C@@H](O)[C@H](O)[C@@H]3O)c(=O)oc2c1 [compound 26]	55.9
CC(C)Oc1ccc2c(O)c(O[C@H]3O[C@H](CO)[C@@H](O)[C@H](O)[C@@H]3O)c(=O)oc2c1 [compound 27]	51.2
CCC=CCCOc1ccc2c(O)c(O[C@H]3O[C@H](CO)[C@@H](O)[C@H](O)[C@@H]3O)c(=O)oc2c1 [compound 28]	50.3
CC(C)=CCC/C(C)=C/COc1ccc2c(O)c(O[C@H]3O[C@H](CO)[C@@H](O)[C@H](O)[C@@H]3O)c(=O)oc2c1 [compound 29]	53.6
O=C(Oc1ccc2c(O)c(O[C@H]3O[C@H](CO)[C@@H](O)[C@H](O)[C@@H]3O)c(=O)oc2c1)c1ccccc1 [compound 30]	48.7
O=c1oc2cc(OCc3ccccc3)ccc2c(O)c1O[C@H]1O[C@H](CO)[C@@H](O)[C@H](O)[C@@H]1O [compound 31]	48.6
O=c1oc2cc(O)ccc2c(O)c1O[C@@H]1O[C@H](CO)[C@H](O)[C@H](O)[C@H]1O [compound 32]	48.1
CCCCOc1ccc2c(O)c(O[C@@H]3O[C@H](CO)[C@H](O)[C@H](O)[C@H]3O)c(=O)oc2c1 [compound 33]	62.5
CCCCCCCCOc1ccc2c(O)c(O[C@@H]3O[C@H](CO)[C@H](O)[C@H](O)[C@H]3O)c(=O)oc2c1 [compound 34]	64.2
CCCCCCCCCCCCOc1ccc2c(O)c(O[C@@H]3O[C@H](CO)[C@H](O)[C@H](O)[C@H]3O)c(=O)oc2c1 [compound 35]	61.1

Each compound was assayed on airway resistance in experimental asthma model (assay: Effect on experimental asthma model in guinea pigs). Settings: Cavia porcellus; 100 mg/kg oral, OVA challenge, guinea pigs; Table 7.
Format: in vivo, guinea pigs (Male hadley)
Experimental: The asthma is typical allergic disease and we carried out this pharmacological test by well known experimental asthma model in guinea pigs in order to confirm that the compounds of the present invention suppress the asthma. In the following, the method of the pharmacological test will be explained.
Method: Male hadley guinea pigs were immunized by intraperitoneal injection of saline (1 ml) containing 5 mg of ovalbumine (OVA) three times at interval of one week. 2 weeks after final immunization, the animals were challenged by inhalation of 1% OVA-saline solution for 1 minute and then the airway resistance of the animals were measured for 30 minutes with PULMOS-1 (Medical Interface Project Station Inc.) after the inhalation. The compounds of the present invention (test compounds) suspended in 0.5% CMCNa were given orally at a dose of 100 mg/kg. As positive control group, Disodium Cromoglicate (DSCG), well known anti-allergic agent, in saline were injected at a dose of 20 mg/kg into the vein of the animals. As vehicle control group, only 0.5% CMCNa solution were given orally. The inhibition (%) of the airway resistance in vehicle control group was calculated according to equation 5 and the result was shown in Table 7. Each experimental group consisted of 5 guinea pigs. [formula] In equation 5: A: Maximum airway resistance in vehicle control group
B: Maximum airway resistance in test compounds group or positive control group

SMILES	inhibition in vivo at 100 mg/kg [%]
CCC=CCCOc1ccc2c(O)c(O[C@@H]3O[C@H](CO)[C@@H](O)[C@H](O)[C@H]3O)c(=O)oc2c1 [compound 19]	73.1
CC(C)=CCC/C(C)=C/COc1ccc2c(O)c(O[C@@H]3O[C@H](CO)[C@@H](O)[C@H](O)[C@H]3O)c(=O)oc2c1 [compound 20]	72.4
O=C(Oc1ccc2c(O)c(O[C@@H]3O[C@H](CO)[C@@H](O)[C@H](O)[C@H]3O)c(=O)oc2c1)c1ccccc1 [compound 21]	60.7
O=c1oc2cc(OCc3ccccc3)ccc2c(O)c1O[C@@H]1O[C@H](CO)[C@@H](O)[C@H](O)[C@H]1O [compound 22]	59.4
O=c1oc2cc(O)ccc2c(O)c1O[C@H]1O[C@H](CO)[C@@H](O)[C@H](O)[C@@H]1O [compound 23]	46.6
CCCCOc1ccc2c(O)c(O[C@H]3O[C@H](CO)[C@@H](O)[C@H](O)[C@@H]3O)c(=O)oc2c1 [compound 24]	58.3
CCCCCCCCOc1ccc2c(O)c(O[C@H]3O[C@H](CO)[C@@H](O)[C@H](O)[C@@H]3O)c(=O)oc2c1 [compound 25]	68.6
CCCCCCCCCCCCOc1ccc2c(O)c(O[C@H]3O[C@H](CO)[C@@H](O)[C@H](O)[C@@H]3O)c(=O)oc2c1 [compound 26]	66.3
CC(C)Oc1ccc2c(O)c(O[C@H]3O[C@H](CO)[C@@H](O)[C@H](O)[C@@H]3O)c(=O)oc2c1 [compound 27]	56.7
CCC=CCCOc1ccc2c(O)c(O[C@H]3O[C@H](CO)[C@@H](O)[C@H](O)[C@@H]3O)c(=O)oc2c1 [compound 28]	57.2
CC(C)=CCC/C(C)=C/COc1ccc2c(O)c(O[C@H]3O[C@H](CO)[C@@H](O)[C@H](O)[C@@H]3O)c(=O)oc2c1 [compound 29]	56.1
O=C(Oc1ccc2c(O)c(O[C@H]3O[C@H](CO)[C@@H](O)[C@H](O)[C@@H]3O)c(=O)oc2c1)c1ccccc1 [compound 30]	47.8
O=c1oc2cc(OCc3ccccc3)ccc2c(O)c1O[C@H]1O[C@H](CO)[C@@H](O)[C@H](O)[C@@H]1O [compound 31]	53.5
O=c1oc2cc(O)ccc2c(O)c1O[C@@H]1O[C@H](CO)[C@H](O)[C@H](O)[C@H]1O [compound 32]	54.8
CCCCOc1ccc2c(O)c(O[C@@H]3O[C@H](CO)[C@H](O)[C@H](O)[C@H]3O)c(=O)oc2c1 [compound 33]	68.1
CCCCCCCCOc1ccc2c(O)c(O[C@@H]3O[C@H](CO)[C@H](O)[C@H](O)[C@H]3O)c(=O)oc2c1 [compound 34]	78.3
CCCCCCCCCCCCOc1ccc2c(O)c(O[C@@H]3O[C@H](CO)[C@H](O)[C@H](O)[C@H]3O)c(=O)oc2c1 [compound 35]	75.2
